Experimental data reported in ChEMBL document CHEMBL5375992, “Design and Development of IKZF2 and CK1α Dual Degraders” (J Med Chem, 2023).
The source made the active and inactive calls. The rule behind the calls is not given here.

What was measured:
[1] = target: T1, Protein cereblon/Zinc finger protein Helios (Homo sapiens) (UniProt Q96SW2+Q9UKS7); assay: Protac activity at CRBN/IKZF2 (unknown origin) transfected in HEK293T cells at 100 nM incubated for 24 hrs by flow cytometry analysis relative to control; assay type: cell-based
[2] = target: T2, Cereblon/Casein kinase I alpha (Homo sapiens) (UniProt P48729+Q96SW2); assay: Protac activity at CRBN/CK1alpha (unknown origin) transfected in HEK293T cells at 100 nM incubated for 24 hrs by flow cytometry analysis relative to control; assay type: cell-based
[3] = Metabolic stability in mouse liver microsomes assessed as half life preincubated with NADPH and UDPGA for 5 mins followed by compound addition and measured upto 60 mins by LC-MS/MS analysis; assay type: ADME, Microsome
[4] = Metabolic stability in human liver microsomes assessed as half life preincubated with NADPH and UDPGA for 5 mins followed by compound addition and measured upto 60 mins by LC-MS/MS analysis; assay type: ADME, Microsome
[5] = Metabolic stability in mouse liver microsomes assessed as intrinsic clearance preincubated with NADPH and UDPGA for 5 mins followed by compound addition and measured upto 60 mins by LC-MS/MS analysis; assay type: ADME, Microsome; details: read-out: CLH
[6] = Metabolic stability in human liver microsomes assessed as intrinsic clearance preincubated with NADPH and UDPGA for 5 mins followed by compound addition and measured upto 60 mins by LC-MS/MS analysis; assay type: ADME, Microsome; details: read-out: CLH
[7] = target: T1, Protein cereblon/Zinc finger protein Helios (Homo sapiens); assay: Protac activity at CRBN/IKZF2 in human MOLM-13 cells at 25 uM incubated for 24 hrs by Western blotting analysis relative to control; assay type: cell-based
[8] = target: T3, Cereblon/Ikaros (Homo sapiens) (UniProt Q96SW2+Q13422); assay: Protac activity at CRBN/IKZF1 in human MOLM-13 cells at 25 uM incubated for 24 hrs by Western blotting analysis relative to control; assay type: cell-based
[9] = target: T1, Protein cereblon/Zinc finger protein Helios (Homo sapiens); assay: Protac activity at CRBN/IKZF2 in human MOLM-13 cells assessed as relative ratio at 25 uM incubated for 24 hrs by Western blotting analysis relative to DMSO; assay type: cell-based
[10] = target: T3, Cereblon/Ikaros (Homo sapiens); assay: Protac activity at CRBN/IKZF1 in human MOLM-13 cells assessed as relative ratio at 25 uM incubated for 24 hrs by Western blotting analysis relative to DMSO; assay type: cell-based
[11] = target: T3, Cereblon/Ikaros (Homo sapiens); assay: Protac activity at CRBN/IKZF1 (unknown origin) transfected in HEK293T cells at 100 nM incubated for 24 hrs by flow cytometry analysis relative to control; assay type: cell-based
[12] = target: T4, Protein cereblon/Eukaryotic peptide chain release factor GTP-binding subunit ERF3A (Homo sapiens) (UniProt Q96SW2+P15170); assay: Protac activity at CRBN/GSPT1 (unknown origin) transfected in HEK293T cells at 100 nM incubated for 24 hrs by flow cytometry analysis relative to control; assay type: cell-based
[13] = target: T3, Cereblon/Ikaros (Homo sapiens); assay: Protac activity at CRBN/IKZF1 (unknown origin) transfected in HEK293T cells at 1 uM incubated for 24 hrs by flow cytometry analysis relative to control; assay type: cell-based
[14] = target: T1, Protein cereblon/Zinc finger protein Helios (Homo sapiens); assay: Protac activity at CRBN/IKZF2 (unknown origin) transfected in HEK293T cells at 1 uM incubated for 24 hrs by flow cytometry analysis relative to control; assay type: cell-based
[15] = target: T2, Cereblon/Casein kinase I alpha (Homo sapiens); assay: Protac activity at CRBN/CK1alpha (unknown origin) transfected in HEK293T cells at 1 uM incubated for 24 hrs by flow cytometry analysis relative to control; assay type: cell-based
[16] = target: T4, Protein cereblon/Eukaryotic peptide chain release factor GTP-binding subunit ERF3A (Homo sapiens); assay: Protac activity at CRBN/GSPT1 (unknown origin) transfected in HEK293T cells at 1 uM incubated for 24 hrs by flow cytometry analysis relative to control; assay type: cell-based
[17] = target: T4, Protein cereblon/Eukaryotic peptide chain release factor GTP-binding subunit ERF3A (Homo sapiens); assay: Protac activity at CRBN/GSPT1 in human NCI-H1048 cells at 10 to 100 nM incubated for 24 hrs by Western blotting analysis; assay type: cell-based; details: dose 10-100 nM
A2780 = assay: Cytotoxicity against human A2780 cells incubated for 5 days by MTT assay; assay type: functional, cell-based; details: time 5.0 day
OCI-Ly3 = assay: Cytotoxicity against human OCILY3 cells incubated for 5 days by MTT assay; assay type: functional, cell-based; details: time 5.0 day

T2 sequence (P48729 2-337 limits assumed): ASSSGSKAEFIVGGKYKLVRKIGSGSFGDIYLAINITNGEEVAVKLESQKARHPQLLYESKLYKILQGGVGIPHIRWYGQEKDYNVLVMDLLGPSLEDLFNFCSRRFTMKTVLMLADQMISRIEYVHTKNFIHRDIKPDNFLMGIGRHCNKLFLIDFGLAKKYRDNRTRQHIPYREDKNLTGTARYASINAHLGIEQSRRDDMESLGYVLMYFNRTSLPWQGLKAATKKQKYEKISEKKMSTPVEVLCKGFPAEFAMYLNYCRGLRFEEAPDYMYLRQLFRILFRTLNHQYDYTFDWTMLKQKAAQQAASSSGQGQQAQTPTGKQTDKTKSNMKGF
T2 sequence (Q96SW2 whole entry partner): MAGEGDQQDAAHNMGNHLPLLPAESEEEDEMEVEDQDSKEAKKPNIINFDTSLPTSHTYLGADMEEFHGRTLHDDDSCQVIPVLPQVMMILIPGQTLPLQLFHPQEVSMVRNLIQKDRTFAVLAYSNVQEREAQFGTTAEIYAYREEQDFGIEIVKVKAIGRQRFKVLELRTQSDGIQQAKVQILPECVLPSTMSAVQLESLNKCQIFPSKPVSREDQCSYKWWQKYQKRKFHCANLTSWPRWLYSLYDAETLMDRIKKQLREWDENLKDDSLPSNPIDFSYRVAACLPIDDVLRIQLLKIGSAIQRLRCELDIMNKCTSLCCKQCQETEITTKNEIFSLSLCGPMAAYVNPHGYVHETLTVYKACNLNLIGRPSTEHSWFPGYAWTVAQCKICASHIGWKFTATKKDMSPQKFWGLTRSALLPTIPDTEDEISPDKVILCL
T4 sequence (P15170 whole entry, looked up): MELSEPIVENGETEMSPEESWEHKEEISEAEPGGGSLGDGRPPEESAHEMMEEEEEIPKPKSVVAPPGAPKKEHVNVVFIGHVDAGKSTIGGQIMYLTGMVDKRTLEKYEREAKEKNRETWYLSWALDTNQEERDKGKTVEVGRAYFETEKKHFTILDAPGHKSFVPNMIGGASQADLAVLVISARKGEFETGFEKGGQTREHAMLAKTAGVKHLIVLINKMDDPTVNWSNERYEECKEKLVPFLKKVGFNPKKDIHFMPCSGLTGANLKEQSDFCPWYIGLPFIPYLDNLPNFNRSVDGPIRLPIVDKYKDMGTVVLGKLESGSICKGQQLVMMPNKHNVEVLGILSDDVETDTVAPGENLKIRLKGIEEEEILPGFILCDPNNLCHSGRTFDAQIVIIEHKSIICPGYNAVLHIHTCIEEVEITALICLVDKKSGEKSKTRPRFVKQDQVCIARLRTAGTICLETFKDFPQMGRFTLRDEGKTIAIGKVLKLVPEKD
T4 sequence (Q96SW2 whole entry, looked up): as the sequence (Q96SW2 whole entry partner) above
T1 sequence (Q96SW2 whole entry, looked up): as the sequence (Q96SW2 whole entry partner) above
T1 sequence (Q9UKS7 whole entry, looked up): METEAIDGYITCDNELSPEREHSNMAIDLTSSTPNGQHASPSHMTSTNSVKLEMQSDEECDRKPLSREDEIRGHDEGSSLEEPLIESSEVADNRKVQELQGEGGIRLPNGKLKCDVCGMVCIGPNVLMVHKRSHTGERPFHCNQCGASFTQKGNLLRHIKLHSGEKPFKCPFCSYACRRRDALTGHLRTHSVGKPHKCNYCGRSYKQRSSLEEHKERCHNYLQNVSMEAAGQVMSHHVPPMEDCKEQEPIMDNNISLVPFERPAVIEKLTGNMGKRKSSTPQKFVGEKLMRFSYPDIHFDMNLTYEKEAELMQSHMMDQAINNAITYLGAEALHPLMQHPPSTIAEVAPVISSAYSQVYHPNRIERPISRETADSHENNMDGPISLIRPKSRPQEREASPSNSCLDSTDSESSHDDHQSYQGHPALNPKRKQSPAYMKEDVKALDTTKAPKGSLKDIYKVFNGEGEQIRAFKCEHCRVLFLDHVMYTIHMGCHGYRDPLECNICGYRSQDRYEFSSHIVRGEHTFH

Compound | Activity [1] | Activity [2] | half-life [3] | half-life [4] | microsomal CLint [5] | microsomal CLint [6] | further results
COc1ccc2nc(C(=O)Nc3ccc4c(c3)CN(C3CCC(=O)NC3=O)C4=O)ccc2c1 (configuration not stated) | 87% | 69% | 0.398 h | 0.265 h | 57.9 µL/min/mg | 87.4 µL/min/mg | –
COc1ccc2cc(C(=O)Nc3ccc4c(c3)CN(C3CCC(=O)NC3=O)C4=O)ncc2c1 (configuration not stated) | 68% | 61% | 3.48 h | 0.04 h | 6.6 µL/min/mg | 584 µL/min/mg | –
CCCCOc1ccc2cc(C(=O)Nc3ccc4c(c3)CN(C3CCC(=O)NC3=O)C4=O)ccc2c1 (configuration not stated) | 81% | 70% | > 4.25 h | > 4.25 h | < 5.4 µL/min/mg | < 5.4 µL/min/mg | –
Nc1cccc2c1CN(C1CCC(=O)NC1=O)C2=O (configuration not stated) [LENALIDOMIDE] | – | – | > 6 h | > 6 h | – | – | –
O=C1CCC(N2Cc3cc(NC(=O)c4ccc5ccccc5c4)ccc3C2=O)C(=O)N1 (configuration not stated) | – | – | > 4.25 h | > 4.25 h | < 5.4 µL/min/mg | < 5.4 µL/min/mg | Activity [7]: Active; Activity [8]: inactive; Ratio [9]: 0.27; Ratio [10]: 0.5
COc1ccc2cc(C(=O)Nc3ccc4c(c3)CN(C3CCC(=O)NC3=O)C4=O)ccc2c1 (configuration not stated) | 90% | 70% | 3.13 h | – | 7.4 µL/min/mg | 362 µL/min/mg | Activity [11]: 7%; Activity ([1]; tested as the 2H-labelled form): 70%; Activity ([2]; tested as the 2H-labelled form): 52%; Activity [12]: 8%; Activity [13]: 9%; Activity [14]: 94%; Activity [15]: 70%; Activity [16]: 18%; Activity [17]: Active
CCOc1ccc2cc(C(=O)Nc3ccc4c(c3)CN(C3CCC(=O)NC3=O)C4=O)ccc2c1 (configuration not stated) | 80% | 71% | > 4.25 h | > 4.25 h | < 5.4 µL/min/mg | < 5.4 µL/min/mg | –
[2H]C([2H])([2H])Oc1ccc2cc(C(=O)Nc3ccc4c(c3)CN(C3CCC(=O)NC3=O)C4=O)ccc2c1 (configuration not stated) | – | – | > 4.25 h | 0.08 h | < 5.4 µL/min/mg | 290 µL/min/mg | –
COc1ccc2cc(C(=O)Nc3ccc4c(c3)CN(C3CCC(=O)NC3=O)C4=O)ccc2n1 (configuration not stated) | 89% | 68% | > 4.25 h | 0.268 h | < 5.4 µL/min/mg | 108 µL/min/mg | –
COc1cc(C(=O)O)ccc1NC(=O)[C@@H]1N[C@@H](CC(C)(C)C)[C@](C#N)(c2ccc(Cl)cc2F)[C@H]1c1cccc(Cl)c1F | – | – | – | – | – | – | Activity (A2780): inactive; Activity (OCI-Ly3): inactive
CC(C)Oc1ccc2cc(C(=O)Nc3ccc4c(c3)CN(C3CCC(=O)NC3=O)C4=O)ccc2c1 (configuration not stated) | 81% | 70% | > 4.25 h | > 4.25 h | < 5.4 µL/min/mg | < 5.4 µL/min/mg | –
COc1ccc2cc(C(=O)Nc3ccc4c(c3)CN(C3CCC(=O)NC3=O)C4=O)cnc2c1 (configuration not stated) | 73% | 62% | > 4.25 h | 0.338 h | < 5.4 µL/min/mg | 68.4 µL/min/mg | –
